Measured values as given in ChEMBL document CHEMBL1152070, “-cyano-substituted analogoues of decarboxylated S-adenosylmethionine as enzyme activated, irreversible inhibitors of S-adenosylmethionine decarboxylase” (Bioorg Med Chem Lett, 1993).
pKi: −log10 of the molar value.

Columns and labels:
[1] = biological target: T1, S-adenosylmethionine decarboxylase proenzyme (Homo sapiens) (UniProt P17707); experiment: Compound was evaluated for Enzyme kinetic inactivation constant: Kinact for S-Adenosyl-methionine decarboxylase (AdoMet-DC) enzyme
T1 sequence (whole entry): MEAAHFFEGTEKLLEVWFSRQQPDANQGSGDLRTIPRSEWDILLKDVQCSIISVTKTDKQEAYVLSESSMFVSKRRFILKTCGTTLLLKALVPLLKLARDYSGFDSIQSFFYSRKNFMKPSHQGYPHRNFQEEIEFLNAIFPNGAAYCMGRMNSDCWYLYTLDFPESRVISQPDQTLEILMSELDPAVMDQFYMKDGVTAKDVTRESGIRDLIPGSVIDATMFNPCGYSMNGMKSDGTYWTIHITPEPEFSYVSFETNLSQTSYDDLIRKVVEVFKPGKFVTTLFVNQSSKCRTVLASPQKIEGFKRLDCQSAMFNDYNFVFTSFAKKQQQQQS

[2] = biological target: T2, S-adenosylmethionine decarboxylase proenzyme (Homo sapiens, UniProt P17707); experiment: Compound was evaluated to inactivate the human AdoMet-DC
T2 sequence (P17707 whole entry): T1 sequence (whole entry)

C[S+](CCC(N)C#N)C[C@H]1O[C@@H](n2cnc3c(N)ncnc32)[C@H](O)[C@@H]1O (stereo not given in full)
K inact [1]: 0.29 min⁻¹
K inact ([1]; Escherichia coli): 0.06 min⁻¹
pKi [2]: 3.61

C[S+](CCCC(N)C#N)C[C@H]1O[C@@H](n2cnc3c(N)ncnc32)[C@H](O)[C@@H]1O (stereo not given in full)
K inact [1]: 0.03 min⁻¹
pKi [2]: 5.14
